ChEMBL document CHEMBL1811894, “Structural and conformational analysis of proanthocyanidins from Parapiptadenia rigida and their wound-healing properties” (J Nat Prod, 2011)
Calls of active or inactive are those of the source. The rule behind the calls is not given here.

Legend:
[1] = test system: NIH3T3; assay: Wound healing activity in Swiss albino mouse 3T3 cells assessed as cell migration-associated increase in cell number at 10 uM after 12 hrs by scratch assay; type: functional, cell-based
[2] = test system: NIH3T3; assay: Wound healing activity in Swiss albino mouse 3T3 cells assessed as cell migration-associated increase in cell number at 1 uM after 12 hrs by scratch assay; type: functional, cell-based
[3] = test system: NIH3T3; assay: Cytotoxicity against Swiss albino mouse 3T3 cells at 10 to 20 uM; type: cell-based; conditions: nih3t3, 20 µM
[4] = test system: NIH3T3; assay: Wound healing activity in Swiss albino mouse 3T3 cells assessed as cell migration-associated increase in cell number at 20 uM after 12 hrs by scratch assay; type: functional, cell-based
[5] = test system: Jurkat; assay: Inhibition of TNF-alpha-induced NFkappaB activity in human Jurkat cells at 10 uM after 24 hrs by EMSA; type: cell-based

Row | Structure (SMILES) | Activity [1] | Activity [2] | Activity [3] | Activity [4] | inhibition [5]
1 | COc1c(O)cc([C@H]2Oc3cc(O)cc(O)c3[C@@H](c3c(O)cc(O)c4c3O[C@H](c3cc(O)c(OC)c(O)c3)[C@@H](O)C4)[C@@H]2O)cc1O | inactive | Active | Toxic | inactive | 
2 | COc1c(O)cc([C@H]2Oc3c(c(O)cc(O)c3[C@H]3c4c(O)cc(O)cc4O[C@H](c4ccc(O)c(O)c4)[C@@H]3O)C[C@@H]2O)cc1O | inactive | Active | Toxic | inactive | 
3 | COc1c(O)cc([C@H]2Oc3c(c(O)cc(O)c3[C@H]3c4c(O)cc(O)cc4O[C@H](c4cc(O)c(O)c(O)c4)[C@@H]3O)C[C@@H]2O)cc1O | inactive | Active | Toxic | inactive | Active
